Assay results from ChEMBL document CHEMBL1909046, “DrugMatrix in vitro pharmacology data”.

What was measured:
[1] = target: Tyrosine-protein kinase Lck (Homo sapiens, UniProt P06239); assay: DRUGMATRIX: Protein Tyrosine Kinase, LCK enzyme inhibition (substrate: Poly(Glu:Tyr)); type: cell-based, Insect cells; conditions: insect cells; Not Active = under 50% inhibition at 10 µM
Cytochrome P450 2A6 = target: T1, Cytochrome P450 2A6 (Homo sapiens, UniProt P11509); conditions: bti-tn-5b1-4; note: in other assays of this panel Not Active means under 50% inhibition at 10 µM
T1 sequence (P11509 whole entry): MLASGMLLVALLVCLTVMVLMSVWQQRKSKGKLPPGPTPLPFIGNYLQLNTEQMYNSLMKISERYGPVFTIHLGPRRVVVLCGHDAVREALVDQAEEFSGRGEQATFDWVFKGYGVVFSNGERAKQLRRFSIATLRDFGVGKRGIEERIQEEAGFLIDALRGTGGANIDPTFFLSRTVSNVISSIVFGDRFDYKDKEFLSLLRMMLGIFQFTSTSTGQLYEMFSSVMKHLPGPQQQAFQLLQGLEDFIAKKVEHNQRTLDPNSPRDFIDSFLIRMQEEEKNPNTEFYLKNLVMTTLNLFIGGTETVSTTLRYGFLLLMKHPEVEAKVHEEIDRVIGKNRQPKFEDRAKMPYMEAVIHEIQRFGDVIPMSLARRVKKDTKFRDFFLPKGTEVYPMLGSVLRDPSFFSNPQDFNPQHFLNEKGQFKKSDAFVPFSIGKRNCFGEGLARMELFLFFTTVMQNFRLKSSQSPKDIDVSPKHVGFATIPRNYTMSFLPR

[2] = target: T2, Nitric oxide synthase, inducible (Mus musculus, UniProt P29477); set-up: species or system Escherichia coli;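 note: inhibition of iNOS enzyme activity measured with L-arginine as substrate; in other assays of this panel Not Active means under 50% inhibition at 10 µM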
T2 sequence (P29477 whole entry): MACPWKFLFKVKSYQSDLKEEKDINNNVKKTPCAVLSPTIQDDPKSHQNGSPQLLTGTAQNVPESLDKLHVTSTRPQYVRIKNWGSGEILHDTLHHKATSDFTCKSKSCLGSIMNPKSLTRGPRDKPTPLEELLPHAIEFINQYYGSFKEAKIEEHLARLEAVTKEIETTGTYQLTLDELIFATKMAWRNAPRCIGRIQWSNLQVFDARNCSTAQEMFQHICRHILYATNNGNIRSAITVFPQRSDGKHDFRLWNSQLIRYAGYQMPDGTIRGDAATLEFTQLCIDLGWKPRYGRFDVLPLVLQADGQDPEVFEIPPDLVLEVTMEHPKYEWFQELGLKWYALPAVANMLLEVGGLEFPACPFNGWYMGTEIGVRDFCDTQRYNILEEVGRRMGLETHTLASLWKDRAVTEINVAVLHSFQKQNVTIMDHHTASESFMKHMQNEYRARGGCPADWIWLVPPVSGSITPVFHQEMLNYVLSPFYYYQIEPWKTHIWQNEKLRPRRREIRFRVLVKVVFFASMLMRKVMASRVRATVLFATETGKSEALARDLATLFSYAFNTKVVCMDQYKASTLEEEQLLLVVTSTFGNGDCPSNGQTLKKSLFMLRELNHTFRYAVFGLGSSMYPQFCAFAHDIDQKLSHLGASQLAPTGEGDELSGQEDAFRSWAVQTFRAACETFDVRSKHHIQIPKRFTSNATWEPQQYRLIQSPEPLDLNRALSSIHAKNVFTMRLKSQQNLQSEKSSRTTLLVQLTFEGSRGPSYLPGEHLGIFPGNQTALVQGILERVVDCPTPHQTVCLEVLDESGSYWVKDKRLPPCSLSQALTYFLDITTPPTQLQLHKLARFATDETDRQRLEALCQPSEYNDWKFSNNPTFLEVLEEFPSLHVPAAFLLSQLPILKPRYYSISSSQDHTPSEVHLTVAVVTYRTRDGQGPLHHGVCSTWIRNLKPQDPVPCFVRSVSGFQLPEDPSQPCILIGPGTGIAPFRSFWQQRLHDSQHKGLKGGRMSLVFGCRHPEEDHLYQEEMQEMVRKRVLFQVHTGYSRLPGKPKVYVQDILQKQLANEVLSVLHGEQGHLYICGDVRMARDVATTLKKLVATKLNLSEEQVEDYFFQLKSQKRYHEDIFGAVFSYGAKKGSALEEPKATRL

[3] = target: T3, Cholecystokinin receptor type A (Homo sapiens, UniProt P32238); type: cell membranes, Membrane; conditions: 1321-n1; note: in other assays of this panel Not Active means under 50% inhibition at 10 µM
T3 sequence (P32238 whole entry): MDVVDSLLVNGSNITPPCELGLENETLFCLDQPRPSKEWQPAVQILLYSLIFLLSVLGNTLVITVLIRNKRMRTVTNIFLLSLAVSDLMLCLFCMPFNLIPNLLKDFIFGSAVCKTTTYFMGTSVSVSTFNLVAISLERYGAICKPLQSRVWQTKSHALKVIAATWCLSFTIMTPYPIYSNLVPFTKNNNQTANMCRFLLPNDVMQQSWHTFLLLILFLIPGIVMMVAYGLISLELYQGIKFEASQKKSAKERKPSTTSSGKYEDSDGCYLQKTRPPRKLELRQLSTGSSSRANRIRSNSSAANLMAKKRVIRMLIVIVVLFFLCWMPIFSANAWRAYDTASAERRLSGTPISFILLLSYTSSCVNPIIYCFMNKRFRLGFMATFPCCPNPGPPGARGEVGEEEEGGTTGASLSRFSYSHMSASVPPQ

[4] = DRUGMATRIX: Potassium Channel [KATP] radioligand binding (ligand: [3H] Glyburide); type: cell membranes, Membrane; conditions: hit-t15; Not Active = under 50% inhibition at 10 µM
[5] = target: T4, Neuropeptide Y receptor type 2 (Homo sapiens, UniProt P49146); type: cell membranes, Membrane; conditions: kan-ts; note: in other assays of this panel Not Active means under 50% inhibition at 10 µM
T4 sequence (P49146 whole entry): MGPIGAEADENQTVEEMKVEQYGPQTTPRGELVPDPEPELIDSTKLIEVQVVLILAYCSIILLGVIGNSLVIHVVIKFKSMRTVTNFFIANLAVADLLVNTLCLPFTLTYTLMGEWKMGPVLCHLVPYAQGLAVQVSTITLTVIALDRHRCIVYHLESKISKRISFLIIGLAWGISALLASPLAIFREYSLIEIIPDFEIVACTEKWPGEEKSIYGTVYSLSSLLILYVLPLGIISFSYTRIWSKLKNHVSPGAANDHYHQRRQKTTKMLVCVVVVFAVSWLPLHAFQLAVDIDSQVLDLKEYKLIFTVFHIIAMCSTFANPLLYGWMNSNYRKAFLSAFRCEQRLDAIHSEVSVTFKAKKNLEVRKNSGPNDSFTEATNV

[6] = DRUGMATRIX: Imidazoline I2, Central radioligand binding (ligand: [3H] Idazoxan); type: cell membranes, Rattus norvegicus, Wistar, Cerebral cortex, Membrane; conditions: Not Active = under 50% inhibition at 10 µM
[7] = target: Aldo-keto reductase family 1 member B1 (Rattus norvegicus, UniProt P07943); assay: biochemical; type: tissue-based, Lens of camera-type eye

Sequence of Tyrosine-protein kinase Lck (P06239 whole entry): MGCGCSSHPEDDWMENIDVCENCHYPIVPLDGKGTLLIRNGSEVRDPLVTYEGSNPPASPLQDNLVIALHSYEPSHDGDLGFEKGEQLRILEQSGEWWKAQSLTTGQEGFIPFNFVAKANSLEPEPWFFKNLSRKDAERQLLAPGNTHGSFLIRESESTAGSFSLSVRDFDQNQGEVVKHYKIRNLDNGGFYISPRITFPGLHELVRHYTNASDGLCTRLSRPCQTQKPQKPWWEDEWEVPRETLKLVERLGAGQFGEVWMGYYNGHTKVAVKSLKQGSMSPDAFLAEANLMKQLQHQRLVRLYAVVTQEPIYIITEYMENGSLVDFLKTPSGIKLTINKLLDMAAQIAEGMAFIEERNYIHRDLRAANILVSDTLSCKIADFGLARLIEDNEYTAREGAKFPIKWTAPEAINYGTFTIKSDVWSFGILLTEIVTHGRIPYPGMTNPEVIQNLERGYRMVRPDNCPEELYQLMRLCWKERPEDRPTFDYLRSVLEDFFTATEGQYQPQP

SMILES	IC50 [1]	IC50 (Cytochrome P450 2A6)	Ki (Cytochrome P450 2A6)	IC50 [2]	IC50 [3]	IC50 [4]	Ki [4]	IC50 [5]	IC50 [6]	Ki [6]	IC50 [7]	IC50 ([7]; read-out: IC50) [nM]
Cc1oncc1C(=O)Nc1ccc(C(F)(F)F)cc1 [LEFLUNOMIDE]	Not Active	Not Active	Not Active	Not Active	Not Active	Not Active	Not Active	Not Active	Not Active	Not Active	Not Active	–
COc1c(C)c2c(c(O)c1C/C=C(\C)CCC(=O)O)C(=O)OC2 [MYCOPHENOLIC ACID]	Not Active	Not Active	Not Active	Not Active	Not Active	Not Active	Not Active	Not Active	Not Active	Not Active	Not Active	–
CCCOc1ccccc1-c1nc2nn[nH]c2c(=O)[nH]1 [ZAPRINAST]	Not Active	Not Active	Not Active	Not Active	Not Active	Not Active	Not Active	Not Active	Not Active	Not Active	Not Active	–
C=CCC1(C(C)CCC)C(=O)NC(=O)NC1=O (stereo unspecified) [SECOBARBITAL]	Not Active	Not Active	Not Active	Not Active	Not Active	Not Active	Not Active	Not Active	Not Active	Not Active	Not Active	–
CC(=O)[C@@]1(O)CC[C@H]2[C@@H]3C[C@H](C)C4=CC(=O)CC[C@]4(C)[C@H]3CC[C@@]21C	Not Active	Not Active	Not Active	Not Active	Not Active	Not Active	Not Active	Not Active	Not Active	Not Active	Not Active	–
N#CC(C#N)=Cc1ccc(O)c(O)c1 [TYRPHOSTIN 23]	Not Active	Not Active	Not Active	Not Active	Not Active	Not Active	Not Active	Not Active	Not Active	Not Active	–	202
